From patent US7932266B2, “Isoquinoline derivatives as calpain inhibitors” (Consejo Superior de Investigaciones Cientificas, priority 2004, dated 2011)

Legend:
[1] = target: T1, calpain I from porcine erythrocyte (Sus scrofa, UniProt P35750); test: Enzyme activity test: inhibition of calpain (fluorimetric, BODIPY-FL casein substrate); assay type: biochemical; conditions: 7 inhibitor concentrations between 10 nM and 200 μM
T1 construct: calpain I from porcine erythrocyte (Calbiochem, Cat No 208712) was used as enzyme; purchased Calbiochem 208712; host or cells: porcine erythrocyte (natural source)
T1 sequence (P35750 1-714): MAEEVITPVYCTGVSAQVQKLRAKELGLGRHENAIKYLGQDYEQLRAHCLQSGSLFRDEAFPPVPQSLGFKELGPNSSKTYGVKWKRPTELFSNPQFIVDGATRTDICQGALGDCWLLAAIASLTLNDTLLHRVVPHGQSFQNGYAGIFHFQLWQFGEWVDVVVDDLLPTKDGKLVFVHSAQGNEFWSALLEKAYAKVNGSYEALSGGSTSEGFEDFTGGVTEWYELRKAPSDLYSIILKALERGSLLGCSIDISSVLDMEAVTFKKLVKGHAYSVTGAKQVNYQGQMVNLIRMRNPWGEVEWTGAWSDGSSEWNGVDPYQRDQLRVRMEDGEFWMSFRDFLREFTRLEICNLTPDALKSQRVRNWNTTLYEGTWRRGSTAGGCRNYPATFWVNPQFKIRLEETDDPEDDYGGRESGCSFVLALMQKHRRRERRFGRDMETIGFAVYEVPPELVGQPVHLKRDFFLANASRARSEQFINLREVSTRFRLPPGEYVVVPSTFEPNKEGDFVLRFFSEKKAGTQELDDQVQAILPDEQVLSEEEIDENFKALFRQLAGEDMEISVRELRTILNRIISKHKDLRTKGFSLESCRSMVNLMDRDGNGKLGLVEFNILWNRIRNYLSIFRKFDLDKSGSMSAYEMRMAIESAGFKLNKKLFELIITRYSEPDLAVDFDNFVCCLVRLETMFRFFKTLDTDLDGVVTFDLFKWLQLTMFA
T1 sequence (P04574 1-266 partner): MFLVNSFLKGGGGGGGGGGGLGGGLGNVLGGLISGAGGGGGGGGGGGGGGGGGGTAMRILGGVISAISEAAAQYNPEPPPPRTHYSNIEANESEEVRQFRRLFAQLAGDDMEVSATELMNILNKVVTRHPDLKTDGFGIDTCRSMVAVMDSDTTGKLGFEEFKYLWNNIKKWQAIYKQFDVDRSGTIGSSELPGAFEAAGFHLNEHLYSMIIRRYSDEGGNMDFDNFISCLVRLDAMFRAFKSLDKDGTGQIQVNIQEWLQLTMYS
Excerpt: The capacity to inhibit calpain has been quantified in terms of the value of IC50, which is defined as the concentration of inhibitor that reduces the catalytic activity of an enzyme by half. The lower the value of IC50, the more powerful the inhibitor. Inhibition results on calpain I (the most relevant from a physiological point of view) of some compounds of the present invention are shown in table 1 and in FIG. 1. Given that calpain II, also known as milli-calpain, needs a greater amount of Ca^2+ for activation, it might not possibly have such a relevant physiological role since such a concentration of Ca^2+ would cause cell death before the milli-calpain could become activated. For this reason, the inhibition tests have been performed for calpain I, though they can be extrapolated for calpain II.
The calpain inhibition capacity has been quantified in terms of the value of IC50, which is defined as the concentration of inhibitor that reduces the catalytic activity of an enzyme by half. The lower the value of IC50, the more powerful the inhibitor. Inhibition results on calpain I (the most relevant from a physiological point of view) of some compounds of the present invention are shown in table 1 and in FIG. 1.
The experiments were conducted spectrofluorimetrically using a Spectrofluor Tecan Corp 93382 spectrofluorimeter, exciting at […] and measuring at […]. Casein marked with BODIPY-FL® (Molecular Probes) was used as substrate and calpain I from porcine erythrocyte (Calbiochem, Cat No 208712) was used as enzyme. The freeze-dried substrate is component A of the protease assay kit EnzChek® green fluorescence from Molecular Probes (reference # E-6638); component B, known as 20× digestion buffer, contains 13 mL of 200 mM Tris-HCl, pH 7.8 and 2 mM sodium azide. The commercial calpain I that was used has a concentration of 1 mg in 1 mL of aqueous solution (the solution is 20 mM imidazol-HCl, pH 6.8, 1 mM EDTA, 1 mM EGTA, 5 mM β-mercaptoethanol, containing 30% glycerine).
2.5 mL of 20× digestion buffer (component B of the kit from Molecular Probes) was diluted with water to a total volume of 50 mL.
200 μg of freeze-dried substrate (component A of the kit from Molecular Probes) was dissolved in 200 μL of phosphate saline buffer. This solution was decanted into a graduated flask and diluted with the digestion solution to a total volume of 40 mL.
20 μL of commercial solution of calpain was diluted with the digestion solution to a total volume of 200 μL.
The inhibitor was dissolved in DMSO. Each inhibitor was assayed at 7 different concentrations between 10 nM and 200 μM.
All the data were obtained measuring the variation in fluorescence with time. The use of a multi-cell device and Eppendorf multi-channel pipettes permitted measurement of the variation in fluorescence in up to 64 experiments. In this way, the control experiment and the experiments with the different concentrations of inhibitor was carried out in the same set of measurements. All the experiments were conducted twice.
The control experiment was carried out mixing 180 μL of casein solution and 5 μL of calpain solution. The reaction was initiated by the addition of 10 μL of a 50 μM solution of CaCl2 in water, and the fluorescence was measured from the moment of the addition of Ca^2+ (time=0) and for 250-300 seconds (measuring during 20 kinetic cycles). The variation in fluorescence (ΔF) was represented against time (t). In order to test the effect of DMSO on enzyme activity, additional control experiments were conducted adding DMSO (in the quantities used in the experiments with the inhibitors), with the same result being obtained as in the control experiment.
180 μL of casein solution, 5 μL of calpain solution and 5 μL of inhibitor solution (of variable concentration) were mixed together. […]

| Structure (SMILES) | IC50 [1] [µM] | melting point [°C] |
| --- | --- | --- |
| CC[C@H](C)[C@@H]1NC(=O)c2ccccc2/C1=C/C(=O)OC [Compound 7, methyl (S,S,Z)-(3-sec-butyl-1-oxo-2,3-dihydro-1H-isoquinolin-4-yliden)-acetate] | 0.025 | – |
| CCCCOC(=O)/C=C1/c2ccccc2C(=O)N[C@H]1[C@@H](C)CC [Compound 10, 1-butyl (S,S,Z)-(3-sec-butyl-1-oxo-2,3-dihydro-1H-isoquinolin-4-yliden)-acetate] | – | 110 to 112 |
| CC[C@H](C)[C@@H]1NC(=O)c2ccccc2/C1=C/C(=O)OCc1ccccc1 [Compound 11, benzyl (S,S,Z)-(3-sec-butyl-1-oxo-2,3-dihydro-1H-isoquinolin-4-yliden)-acetate] | 124 | 53 to 54 |
| CCC(C)C1NC(=O)c2ccccc2/C1=C/C(=O)OC/C=C\COC(=O)/C=C1/c2ccccc2C(=O)N[C@H]1[C@@H](C)CC (some centres unmarked) [Compound 12] | 85 | 79 to 81 |
| CC[C@H](C)[C@@H]1NC(=O)c2ccccc2/C1=C/C(=O)OCC#CCOC(=O)/C=C1/c2ccccc2C(=O)N[C@H]1[C@@H](C)CC [Compound 13] | 59 | 85 to 87 |
| CC[C@H](C)[C@@H]1NC(=O)c2ccccc2/C1=C/C(=O)OCc1ccc(COC(=O)/C=C2/c3ccccc3C(=O)N[C@H]2[C@@H](C)CC)cc1 [Compound 14] | 5 | 213 to 215 |
| CC[C@H](C)[C@@H]1NC(=O)c2ccccc2/C1=C/C(=O)Nc1ccccc1-c1ccccc1NC(=O)/C=C1/c2ccccc2C(=O)N[C@H]1[C@@H](C)CC [Compound 18, (S,S,S,S,Z,Z)-2,2′-bis-[(3-sec-butyl-1-oxo-2,3-dihydro-1H-isoquinolin-4-yliden)-acetylamino]biphenyl] | 0.742 | 177 to 180 |
| CC[C@H](C)[C@@H]1NC(=O)c2ccccc2/C1=C/C(=O)Nc1ccccc1-c1ccccc1NC(=O)[C@H](Cc1ccccc1)NC(=O)OCC1c2ccccc2-c2ccccc21 [Compound 20, (S,S,S,Z)-9H-fuorene-9-ylmethyl (1-{2′-[2-(3-sec-butyl-1-oxo-2,3-dihydro-1H-isoquinolin-4-yliden)-acetylamino]-biphenyl-2-ylcarbamoyl}-2-phenyl-ethyl)-carbamate] | 48 | 108 to 110 |
| CC[C@H](C)[C@H](NC(=O)OCC1c2ccccc2-c2ccccc21)C(=O)Nc1ccccc1-c1ccccc1NC(=O)/C=C1/c2ccccc2C(=O)N[C@H]1[C@@H](C)CC [Compound 21, (S,S,S,S,Z)-9H-fuorene-9-ylmethyl (1-{2′-[2-(3-sec-butyl-1-oxo-2,3-dihydro-1 H-isoquinolin-4-yliden)-acetylamino]-biphenyl-2-ylcarbamoyl}-2-methyl-butyl)-carbamate] | 5 | 116 to 120 |
| CC[C@H](C)[C@@H]1NC(=O)c2ccccc2/C1=C/C(=O)Nc1ccccc1-c1ccccc1NC(=O)[C@@H](N)Cc1ccccc1 [Compound 23, (S,S,S,Z)-2-amino-N-{2′-[2-(3-sec-butyl-1-oxo-2,3-dihydro-1H-isoquinolin-4-yliden)-acetylamino]-biphenyl-2-yl}-3-phenyl-propionamide] | 7 | – |
| CC[C@H](C)[C@H](NC(=O)/C=C1/c2ccccc2C(=O)N[C@H]1[C@@H](C)CC)C(=O)N[C@H](C(=O)OC)[C@@H](C)CC [Compound 25, methyl (S,S,S,S,S,Z)-2-{2-[2-(3-sec-butyl-1-oxo-2,3-dihydro-1H-isoquinolin-4-yliden)-acetylamino]-3-methyl-pentanoylamino}-3-methyl-pentanoate] | 0.447 | – |
| CC[C@H](C)[C@@H]1NC(=S)c2ccccc2/C1=C/C(=O)O [Compound 29, (S,S,Z)-(3-sec-butyl-1-thioxo-2,3-dihydro-1H-isoquinolin-4-yliden)-acetic acid] | – | 193 to 196 |

Further lines, results first:

| IC50 [1] [µM] | melting point [°C] | Structure (SMILES) |
| --- | --- | --- |
| – | 215 to 216 | CC[C@H](C)[C@@H]1NC(=O)c2ccccc2/C1=C/C(=O)O [Compound 8, (S,S,Z)-(3-sec-butyl-1-oxo-2,3-dihydro-1H-isoquinolin-4-yliden)-acetic acid] |
| 140 | 90 to 94 | CC[C@H](C)[C@@H]1NC(=O)c2ccccc2/C1=C/C(=O)NCc1ccccc1 [Compound 15, (S,S,Z)-N-benzyl-2-(3-sec-butyl-1-oxo-2,3-dihydro-1H-isoquinolin-4-yliden)-acetamide] |
| 130 | 147 to 151 | CC[C@H](C)[C@@H]1NC(=O)c2ccccc2/C1=C/C(=O)Nc1cccc(C(C)=O)c1 [Compound 16, (S,S,Z)-N-(3-acetyl-phenyl)-2-(3-sec-butyl-1-oxo-2,3-dihydro-1H-isoquinolin-4-yliden)-acetamide] |
| 0.086 | – | CC[C@H](C)[C@@H]1NC(=O)c2ccccc2/C1=C/C(=O)Nc1ccccc1-c1ccccc1N [Compound 17, (S,S,Z)-N-(2′-amino-biphenyl-2-yl)-2-(3-sec-butyl-1-oxo-2,3-dihydro-1H-isoquinolin-4-yliden)-acetamide] |
| 100 | 133 to 135 | CC[C@H](C)[C@@H]1NC(=O)c2ccccc2/C1=C/C(=O)Nc1ccccc1-c1ccccc1NC(=O)[C@@H](NC(=O)OCC1c2ccccc2-c2ccccc21)C(C)C [Compound 19, (S,S,S,Z)-9H-fuorene-9-ylmethyl (1-{2′-[2-(3-sec-butyl-1-oxo-2,3-dihydro-1H-isoquinolin-4-yliden)-acetylamino]-biphenyl-2-ylcarbamoyl}-2-methyl-propyl)-carbamate] |
| 50 | – | CC[C@H](C)[C@H](N)C(=O)Nc1ccccc1-c1ccccc1NC(=O)/C=C1/c2ccccc2C(=O)N[C@H]1[C@@H](C)CC [Compound 24, (S,S,S,S,Z)-2-amino-N-{2′-[2-(3-sec-butyl-1-oxo-2,3-dihydro-1H-isoquinolin-4-yliden)-acetylamino]-biphenyl-2-yl}-3-methyl-pentanamide] |
| – | 178 to 181 | CC[C@H](C)[C@H](NC(=O)/C=C1/c2ccccc2C(=S)N[C@H]1[C@@H](C)CC)C(=O)N[C@H](C(=O)OC)[C@@H](C)CC [Compound 30, methyl (S,S,S,S,S,S,Z)-2-{2-[2-(3-sec-butyl-1-thioxo-2,3-dihydro-1H-isoquinolin-4-yliden)-acetylamino]-3-methyl-pentanoylamino}-3-methyl-pentanoate] |
